Patent US5843988A, “Cyclopropachromencarboxylic acid derivatives” (Suntory Limited, priority 1995, dated 1998)
Read-outs that look alike come from different tables or passages of the source.

Molecular target: T1, rat mGluR1 (metabotropic glutamate receptor 1) (Rattus norvegicus, UniProt P23385)
T1 construct: expressed in transfected cells; host or cells: CHO (Chinese hamster ovary) cells
Assay: mGluR1 antagonistic effect as assessed with reference to intracellular Ca2+ response in mGluR1 expressing CHO cells (Fura-2 fluorometry)
Type: cell-based
Conditions: Intracellular Ca2+ release induced by 10 μM glutamic acid
Description: Evaluation Example 1. mGluR1 antagonistic effect as assessed with reference to intracellular Ca^2+ response in mGluR1 expressing CHO cells
Since mGluR1 (metabotropic glutamate receptor 1) induces release of Ca^2+ from intracellular Ca^2+ storage sites via the formation of inositol-1,4,5-triphosphate in the pathway of the intracellular signaling system, it is possible to evaluate the antagonistic activity of the compounds of the invention against mGluR1 with reference to intracellular Ca^2+ response in CHO cells in which recombinant rat mGluR1 gene is transfected.
The present inventors applied this evaluation system to assess the mGluR1 antagonistic activity of the compounds provided by this invention using CHO cells in which rat mGluR1 gene is expressed [S. Nakanishi et al.: Neuron, 8, 757 (1992)]. Intracellular Ca^2+ release induced by 10 μM glutamic acid in the presence of various concentrations of the compounds of the present invention added to culture medium was measured by fluorometry with Fura -2 [H. Sugino et al.: Brain Res., 322,127 (1984)]. The antagonistic effect against the induced intracellular Ca^2+ elevation was thus assessed by comparison with the control response in the absence of the test compounds.

[1] = read-out: 50% inhibitory concentrations (IC50), bound stated

T1 sequence (P23385 19-1199): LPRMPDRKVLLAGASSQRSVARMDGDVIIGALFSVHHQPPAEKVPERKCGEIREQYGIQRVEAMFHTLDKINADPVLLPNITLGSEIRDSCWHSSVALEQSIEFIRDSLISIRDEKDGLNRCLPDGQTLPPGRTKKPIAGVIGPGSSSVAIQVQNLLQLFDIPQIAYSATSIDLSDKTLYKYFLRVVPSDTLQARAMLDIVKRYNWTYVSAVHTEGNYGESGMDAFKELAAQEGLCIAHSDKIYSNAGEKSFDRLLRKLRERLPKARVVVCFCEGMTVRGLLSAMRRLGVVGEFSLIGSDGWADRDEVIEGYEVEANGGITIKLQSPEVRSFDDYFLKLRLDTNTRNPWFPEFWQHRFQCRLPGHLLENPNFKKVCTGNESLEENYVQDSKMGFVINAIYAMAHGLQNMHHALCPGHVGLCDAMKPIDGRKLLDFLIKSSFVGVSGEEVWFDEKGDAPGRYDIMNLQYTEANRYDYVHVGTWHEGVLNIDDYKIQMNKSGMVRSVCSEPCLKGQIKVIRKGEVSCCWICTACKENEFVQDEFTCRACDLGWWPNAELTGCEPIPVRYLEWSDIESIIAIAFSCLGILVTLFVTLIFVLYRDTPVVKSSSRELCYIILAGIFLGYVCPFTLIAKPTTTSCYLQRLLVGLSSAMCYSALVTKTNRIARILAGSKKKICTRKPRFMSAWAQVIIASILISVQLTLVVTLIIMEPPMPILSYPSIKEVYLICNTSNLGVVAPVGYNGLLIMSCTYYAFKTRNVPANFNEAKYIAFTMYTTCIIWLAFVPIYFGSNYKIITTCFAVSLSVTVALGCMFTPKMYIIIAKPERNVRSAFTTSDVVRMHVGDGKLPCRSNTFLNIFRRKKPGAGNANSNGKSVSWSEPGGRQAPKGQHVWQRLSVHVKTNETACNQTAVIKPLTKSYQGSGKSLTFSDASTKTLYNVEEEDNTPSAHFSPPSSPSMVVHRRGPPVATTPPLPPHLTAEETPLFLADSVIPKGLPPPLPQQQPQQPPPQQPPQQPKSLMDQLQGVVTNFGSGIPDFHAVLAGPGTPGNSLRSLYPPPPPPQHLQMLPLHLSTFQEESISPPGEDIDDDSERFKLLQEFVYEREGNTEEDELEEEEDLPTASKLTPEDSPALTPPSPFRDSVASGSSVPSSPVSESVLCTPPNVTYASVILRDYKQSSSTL

Compound | IC50 (Table 3, read-out: IC50) | IC50 [1]
N[C@H](C(=O)O)c1ccc(C(=O)O)cc1 [(S)-4CPG, reference compound] | 200 µM | 
CCOC(=O)C12CC1C(=NO)c1ccccc1O2 (stereo not drawn) [Example 32, 1a-ethoxycarbonyl-1a, 7a-dihydro-7(1H)-hydro-xyiminocyclopropa [b]chromen] | 23 µM | ≤ 100 µM
CC(C)COC(=O)C12CC1C(=NO)c1ccccc1O2 (stereo not drawn) [Example 34] | 20 µM | ≤ 100 µM
O=C(Nc1ccccc1)C12CC1C(=NO)c1ccccc1O2 (stereo not drawn) [Example 35, 1a-(N-phenyl)carbamoyl-1a, 7a-dihydro-7(1H)-hydroxyiminocyclopropa[b]chromen] | 3 µM | ≤ 100 µM
CN(C(=O)C12CC1C(=NO)c1ccccc1O2)c1ccccc1 (stereo not drawn) [Example 36, 1a-(N-methyl-N-phenyl)carbamoyl-1a, 7a-dihydro-7(1H)-hydroxyiminocyclopropa[b]chromen] | 10 µM | ≤ 100 µM
COc1ccc(N(C)C(=O)C23CC2C(=NO)c2ccccc2O3)cc1 (stereo not drawn) [Example 41, 1a-(N-4-methoxyphenyl-N-methyl)carbamoyl-1a, 7a-dihydro-7(1H)-hydroxyimino-cyclopropa[b]chromen] | 100 µM | ≤ 100 µM
CN(C(=O)C12CC1C(=NO)c1ccccc1O2)c1ccc(Cl)cc1 (stereo not drawn) [Example 42, 1a-(N-4-chlorophenyl-N-methyl)-carbamoyl-1a, 7a-dihydro-7(1H)-hydroxyiminocyclopropa-[b]chromen] | 100 µM | ≤ 100 µM
CN(Cc1ccccc1)C(=O)C12CC1C(=NO)c1ccccc1O2 (stereo not drawn) [Example 43, 1a-(N-benzyl-N-methyl)carbamoyl-1a, 7a-dihydro-7(1H)-hydroxyiminocyclopropa[b]chromen] | 20 µM | ≤ 100 µM
O=C(N1CCN(c2ccc(F)cc2)CC1)C12CC1C(=NO)c1ccccc1O2 (stereo not drawn) [Example 53, 1a-(1-(4-fluorophenyl)-piperazinyl)arbonyl-1a, 7a-dihydro-7(1H)-hydroxyiminocyclopropa[b]chromen] | 100 µM | ≤ 100 µM
CC(N)(C(=O)O)c1ccc(C(=O)O)cc1 (stereo not drawn) [MCPG, reference compound] | 700 µM | 
